In patent publication US9718790B2, “Triazine derivative and pharmaceutical composition having an analgesic activity comprising the same” (SHIONOGI & CO., LTD., priority 2010, dated 2017):
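Also: stimulus was 50 nM ATP with fluorescence followed for 3 min, and the response per well was peak post-ATP fluorescence divided by the reading at measurement start.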

The molecules below were run against human P2X3 receptor (Homo sapiens (Human), UniProt P56373) (assay: Evaluation of human P2X3 receptor inhibitory activity (Fluo-3 calcium fluorescence, FDSS 3000, ATP stimulation)). Conditions: C6BU-1 cells stably expressing human P2X3 receptor.
human P2X3 receptor, sequence (P56373 whole entry): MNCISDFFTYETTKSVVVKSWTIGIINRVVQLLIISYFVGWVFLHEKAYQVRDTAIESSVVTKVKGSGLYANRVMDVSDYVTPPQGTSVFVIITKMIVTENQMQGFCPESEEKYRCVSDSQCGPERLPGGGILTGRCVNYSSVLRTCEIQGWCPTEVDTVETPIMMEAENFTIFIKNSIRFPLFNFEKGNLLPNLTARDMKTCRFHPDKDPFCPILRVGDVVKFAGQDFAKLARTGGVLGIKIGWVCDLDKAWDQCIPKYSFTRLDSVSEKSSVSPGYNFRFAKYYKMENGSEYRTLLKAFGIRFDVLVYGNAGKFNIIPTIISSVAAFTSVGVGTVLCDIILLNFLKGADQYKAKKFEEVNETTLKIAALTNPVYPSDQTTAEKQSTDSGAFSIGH
Assay type: cell-based
In the case of `CCOC(=O)CCCn1c(=O)[nH]/c(=N\c2ccc3oc(C)cc3c2)n(Cc2ccc(C)cc2)c1=O` [Compound I-0574], the IC50 is reported as 15 nM. `CC(C)Oc1ccc(/N=c2\[nH]c(OCC(=O)O)nc(=O)n2Cc2ccc(Cl)cc2)cc1F` [Compound I-0581] gave an IC50 of 145 nM. `CC(C)Oc1ccc(/N=c2\[nH]c(OCC(=O)NCCO)nc(=O)n2Cc2ccc(Cl)cc2)cc1F` [Compound I-0582] was tested, and the IC50 was 365 nM. `CC(C)Oc1ccc(/N=c2\[nH]c(OCC(=O)NN(C)C)nc(=O)n2Cc2ccc(Cl)cc2)cc1F` [Compound I-0583] gave an IC50 of 38 nM. With `CC(C)Oc1ccc(/N=c2\[nH]c(OCC(=O)NC(CO)CO)nc(=O)n2Cc2ccc(Cl)cc2)cc1F` [Compound I-0584] the IC50 was 248 nM. With `CC(C)Oc1ccc(/N=c2\[nH]c(OCC(=O)N(C)CCO)nc(=O)n2Cc2ccc(Cl)cc2)cc1F` [Compound I-0586] the IC50 was 611 nM. `CC(C)Oc1ccc(/N=c2\[nH]c(OCC(N)=O)nc(=O)n2Cc2ccc(Cl)cc2)cc1F` [Compound I-0587] gave an IC50 of 299 nM. Molecule `COC(=O)[C@H](C)Cn1c(=O)[nH]/c(=N\c2ccc(OC(C)C)c(C)c2)n(Cc2ccc(Cl)cc2)c1=O` [Compound I-0589] has an IC50 of 6 nM. In the case of `CCOc1ccc(/N=c2\[nH]c(=O)n(C[C@@H](C)C(=O)OC)c(=O)n2Cc2ccc(Cl)cc2)cc1Cl` [Compound I-0590], the IC50 is reported as 4 nM. With `COC(=O)[C@@H](C)Cn1c(=O)[nH]/c(=N\c2ccc(OC(C)C)c(Cl)c2)n(Cc2ccc(C)cc2)c1=O` [Compound I-0593] the IC50 was 4 nM. `COC(=O)C(C)(C)Cn1c(=O)[nH]/c(=N\c2ccc3c(c2)cc(C)n3C)n(Cc2ccc(Cl)cc2)c1=O` [Compound I-0597] gave an IC50 of 507 nM. In the case of `CC(C)Oc1ccc(/N=c2\[nH]c(=O)n(C/C(N)=N/O)c(=O)n2Cc2ccc(Cl)cc2)cc1F` [Compound I-0599], the IC50 is reported as 38 nM. Work on `CC(C)Oc1ccc(/N=c2\[nH]c(=O)n(Cc3noc(=O)[nH]3)c(=O)n2Cc2ccc(Cl)cc2)cc1F` [Compound I-0601] yielded an IC50 of 31 nM. For `CCOc1ccc(/N=c2\[nH]c(=O)n(C[C@H](C)C(=O)OC)c(=O)n2Cc2ccc(Cl)cc2)cc1F` [Compound I-0602], the IC50 was 20 nM. For `CC(C)Oc1ccc(/N=c2\[nH]c(=O)n(CCC(=O)NO)c(=O)n2Cc2ccc(Cl)cc2)cc1F` [Compound I-0603], the IC50 was 12 nM. `CC(C)Oc1ccc(/N=c2\[nH]c(=O)n([C@@H]3C[C@H]3C(=O)OC(C)(C)C)c(=O)n2Cc2ccc(Cl)cc2)cc1F` [Compound I-0604] gave an IC50 of 13 nM. `CCOc1ccc(/N=c2\[nH]c(=O)n(C[C@H](C)C(=O)OC)c(=O)n2Cc2ccc(C)cc2)cc1F` [Compound I-0605] showed an IC50 of 25 nM. `COC(=O)[C@@H](C)Cn1c(=O)[nH]/c(=N\c2ccc(OC(C)C)cc2)n(Cc2ccc(C)cc2)c1=O` [Compound I-0606] was tested, and the IC50 was 21 nM. In the case of `COC(=O)NCCn1c(=O)[nH]/c(=N\c2ccc(OC(C)C)c(F)c2)n(Cc2ccc(Cl)cc2)c1=O` [Compound I-0607], the IC50 is reported as 12 nM. For `COC(=O)NCCCn1c(=O)[nH]/c(=N\c2ccc(OC(C)C)c(F)c2)n(Cc2ccc(Cl)cc2)c1=O` [Compound I-0608], the IC50 was 6 nM. For `CCOc1ccc(/N=c2\[nH]c(=O)n(C[C@H](C)C(=O)O)c(=O)n2Cc2ccc(Cl)cc2)cc1F` [Compound I-0609], the IC50 was 31 nM. `CCOc1ccc(/N=c2\[nH]c(=O)n(C[C@H](C)C(=O)O)c(=O)n2Cc2ccc(C)cc2)cc1F` [Compound I-0610] was tested, and the IC50 was 35 nM. With `CC(C)Oc1ccc(/N=c2\[nH]c(=O)n([C@@H]3C[C@H]3C(=O)O)c(=O)n2Cc2ccc(Cl)cc2)cc1F` [Compound I-0612] the IC50 was 38 nM. `CC(C)Oc1ccc(/N=c2\[nH]c(=O)n(CCCN/C(=N\C#N)Oc3ccccc3)c(=O)n2Cc2ccc(Cl)cc2)cc1F` [Compound I-0613] was tested, and the IC50 was 11 nM. `CC(C)Oc1ccc(/N=c2\[nH]c(=O)n(C[C@@H]3COC(C)(C)O3)c(=O)n2Cc2ccc(Cl)cc2)cc1Cl` [Compound I-0614] showed an IC50 of 10 nM. In the case of `CNC(=NC#N)NCCCn1c(=O)[nH]/c(=N\c2ccc(OC(C)C)c(F)c2)n(Cc2ccc(Cl)cc2)c1=O` [Compound I-0615], the IC50 is reported as 5 nM. Molecule `CC(C)Oc1ccc(/N=c2\[nH]c(=O)n(C[C@@H](O)CO)c(=O)n2Cc2ccc(Cl)cc2)cc1Cl` [Compound I-0616] has an IC50 of 10 nM. Molecule `COC(=O)[C@@H](C)Cn1c(=O)[nH]/c(=N\c2ccc(OC(C)C)c(F)c2)n(Cc2ccc(F)cc2)c1=O` [Compound I-0617] has an IC50 of 67 nM. In the case of `COC(=O)[C@@H](C)Cn1c(=O)[nH]/c(=N\c2ccc(OC(C)C)cc2)n(Cc2ccc(F)cc2)c1=O` [Compound I-0618], the IC50 is reported as 121 nM. With `CCCOc1ccc(/N=c2\[nH]c(=O)n(C[C@H](C)C(=O)OC)c(=O)n2Cc2ccc(Cl)cc2)cc1` [Compound I-0619] the IC50 was 14 nM. In the case of `CCCCc1ccc(/N=c2\[nH]c(=O)n(C[C@H](C)C(=O)OC)c(=O)n2Cc2ccc(Cl)cc2)cc1` [Compound I-0620], the IC50 is reported as 44 nM. `CCCc1ccc(/N=c2\[nH]c(=O)n(C[C@H](C)C(=O)OC)c(=O)n2Cc2ccc(Cl)cc2)cc1` [Compound I-0621] showed an IC50 of 58 nM. Work on `COC(=O)[C@@H](C)Cn1c(=O)[nH]/c(=N\c2cccc(C(F)(F)F)c2)n(Cc2ccc(Cl)cc2)c1=O` [Compound I-0622] yielded an IC50 of 30 nM. With `CCCOc1ccc(/N=c2\[nH]c(=O)n(C[C@H](C)C(=O)O)c(=O)n2Cc2ccc(Cl)cc2)cc1` [Compound I-0623] the IC50 was 20 nM. `CCCCc1ccc(/N=c2\[nH]c(=O)n(C[C@H](C)C(=O)O)c(=O)n2Cc2ccc(Cl)cc2)cc1` [Compound I-0624] was tested, and the IC50 was 42 nM. `COC(=O)[C@@H](C)Cn1c(=O)[nH]/c(=N\c2ccc(OC(C)C)c(C)c2)n(Cc2ccc(F)cc2)c1=O` [Compound I-0625] was tested, and the IC50 was 66 nM. `COC(=O)[C@@H](C)Cn1c(=O)[nH]/c(=N\c2ccc(OC(C)C)c(Cl)c2)n(Cc2ccc(F)cc2)c1=O` [Compound I-0626] was tested, and the IC50 was 22 nM. With `CCCc1ccc(/N=c2\[nH]c(=O)n(C[C@H](C)C(=O)O)c(=O)n2Cc2ccc(Cl)cc2)cc1` [Compound I-0627] the IC50 was 91 nM. Molecule `C[C@@H](Cn1c(=O)[nH]/c(=N\c2cccc(C(F)(F)F)c2)n(Cc2ccc(Cl)cc2)c1=O)C(=O)O` [Compound I-0628] has an IC50 of 61 nM. Molecule `Cc1cc(/N=c2\[nH]c(=O)n(C[C@H](C)C(=O)O)c(=O)n2Cc2ccc(F)cc2)ccc1OC(C)C` [Compound I-0629] has an IC50 of 127 nM. For `CC(C)Oc1ccc(/N=c2\[nH]c(=O)n(C[C@H](C)C(=O)O)c(=O)n2Cc2ccc(F)cc2)cc1Cl` [Compound I-0630], the IC50 was 30 nM. `COC(=O)[C@H](C)Cn1c(=O)[nH]/c(=N\c2ccc(OC(C)C)c(C)c2)n(CC2CCCCC2)c1=O` [Compound I-0631] gave an IC50 of 10 nM. In the case of `CCOc1ccc(/N=c2\[nH]c(=O)n(C[C@@H](C)C(=O)OC)c(=O)n2CC2CCCCC2)cc1Cl` [Compound I-0632], the IC50 is reported as 11 nM. In the case of `CC(C)Oc1ccc(/N=c2\[nH]c(=O)n(C[C@H]3COC(C)(C)O3)c(=O)n2Cc2ccc(Cl)cc2)cc1Cl` [Compound I-0633], the IC50 is reported as 4 nM. With `CC(C)Oc1ccc(/N=c2\[nH]c(=O)n(CCCNC(=N)N)c(=O)n2Cc2ccc(Cl)cc2)cc1F` [Compound I-0634] the IC50 was 11 nM. In the case of `CC(C)Oc1ccc(/N=c2\[nH]c(=O)n(CC(=O)NN)c(=O)n2Cc2ccc(Cl)cc2)cc1F` [Compound I-0635], the IC50 is reported as 19 nM. Work on `CC(C)Oc1ccc(/N=c2\[nH]c(=O)n(CC(=O)NO)c(=O)n2Cc2ccc(Cl)cc2)cc1F` [Compound I-0636] yielded an IC50 of 10 nM. Work on `CC(C)Oc1ccc(/N=c2\[nH]c(=O)n(C[C@H](C)C(=O)O)c(=O)n2Cc2ccc(F)cc2)cc1F` [Compound I-0637] yielded an IC50 of 69 nM. For `CC(C)Oc1ccc(/N=c2\[nH]c(=O)n(C[C@H](O)CO)c(=O)n2Cc2ccc(Cl)cc2)cc1Cl` [Compound I-0638, (R)-1-(4-chlorobenzyl)6-(3-chloro-4-isopropoxyphenylamino)-3-(2,3-dihydroxypropyl)-1,3,5-triazinane-2,4-dion], the IC50 was 6 nM. In the case of `CC(C)Oc1ccc(/N=c2\[nH]c(=O)n(C[C@H](C)C(=O)O)c(=O)n2Cc2ccc(F)cc2)cc1` [Compound I-0639], the IC50 is reported as 216 nM. `COC(=O)C(C)(C)n1c(=O)[nH]/c(=N\c2ccc(OC(C)C)c(Cl)c2)n(Cc2ccc(Cl)cc2)c1=O` [Compound I-0640] was tested, and the IC50 was 5 nM. `COc1ccc(Cn2c(=O)[nH]/c(=N\c3ccc(OC(C)C)c(F)c3)n(Cc3ccc(Cl)cc3)c2=O)cn1` [Compound I-0641] was tested, and the IC50 was 26 nM. Molecule `COc1cc(Cn2c(=O)[nH]/c(=N\c3ccc(OC(C)C)c(F)c3)n(Cc3ccc(Cl)cc3)c2=O)ccn1` [Compound I-0642] has an IC50 of 5 nM. With `CC(C)Oc1ccc(/N=c2\[nH]c(=O)n(Cc3n[nH]c(=O)o3)c(=O)n2Cc2ccc(Cl)cc2)cc1F` [Compound I-0643] the IC50 was 54 nM. In the case of `CC(C)Oc1ccc(/N=c2\[nH]c(=O)n(CCC(=O)NN)c(=O)n2Cc2ccc(Cl)cc2)cc1F` [Compound I-0644, 1-(4-chlorobenzyl)-6-(3-fluoro-4-isopropoxyphenylimino)-3-(2-hydrazinecarbonylethyl)-1,3,5-triazinane-2,4-dion], the IC50 is reported as 40 nM. For `CC(C)Oc1ccc(/N=c2\[nH]c(=O)n(CCCS(=O)(=O)O)c(=O)n2Cc2ccc(Cl)cc2)cc1F` [Compound I-0645], the IC50 was 102 nM. For `CC(C)Oc1ccc(/N=c2\[nH]c(=O)n(CCc3n[nH]c(=O)o3)c(=O)n2Cc2ccc(Cl)cc2)cc1F` [Compound I-0646], the IC50 was 28 nM. In the case of `Cc1cc(/N=c2\[nH]c(=O)n(C[C@@H](C)C(=O)O)c(=O)n2CC2CCCCC2)ccc1OC(C)C` [Compound I-0647], the IC50 is reported as 316 nM. `CCOc1ccc(/N=c2\[nH]c(=O)n(C[C@@H](C)C(=O)O)c(=O)n2CC2CCCCC2)cc1Cl` [Compound I-0648] showed an IC50 of 336 nM. In the case of `CC(C)Oc1ccc(/N=c2\[nH]c(=O)n(Cc3ccc(=O)[nH]c3)c(=O)n2Cc2ccc(Cl)cc2)cc1F` [Compound I-0649], the IC50 is reported as 21 nM.

Same assay, conditions: C6BU-1 cells stably expressing human P2X3 receptor, Fluo-3 fluorescence, FDSS 3000
In the case of `Cc1ccc(Cn2c(Nc3ccc(OC(C)C)cc3)nc(=O)n(C(C)C)c2=O)cc1[N+](=O)[O-]` [Compound I-0218], the IC50 is reported as 505 nM. `CC(C)Oc1ccc(Nc2nc(=O)n(C(C)C)c(=O)n2Cc2ccc(F)cc2)cc1C#N` [Compound I-0227] gave an IC50 of 910 nM. `CC(C)n1c(=O)nc(Nc2ccc3oc(=O)[nH]c3c2)n(Cc2ccc(Cl)cc2)c1=O` [Compound I-0249] was tested, and the IC50 was 953 nM. In the case of `CC(C)Cn1c(=O)oc2cc(Nc3nc(=O)n(C(C)C)c(=O)n3Cc3ccc(Cl)cc3)ccc21` [Compound I-0268], the IC50 is reported as 861 nM.
